How the values were obtained:
Assay type in all cases: physicochemical
[1] = Solubility study of DOT derivatives in nail polish (supersaturated solution, quantitative 1H NMR); settings: for Solubility (wt % in polish): nail polish (clear topcoat), supersaturated solution filtered through 0.25 μm PTFE, quantitative 1H NMR; for Notes: solubility / appearance in nail polish solution: standard nail polish solution
Method: The solubility of various DOT derivatives in nail polish was observed by generating a supersaturated solution of the compounds in nail polish (clear topcoat). The supersaturated solution was filtered through a 0.25 μm PTFE syringe filter, and a known mass of an internal NMR standard (bis-1,4-trimethylsilylbenzene) was added. The amount of the compound that was dissolved in the nail polish was then determined by quantitative ^1H NMR. The solubility was taken as the amount of the weight fraction of the compound dissolved in nail polish in a supersaturated solution.

[2] = Disappearance of visible absorbance (yellowness) of polymer compositions under UV irradiation, image analysis in ImageJ; settings: upon polymerization
Method: In some embodiments, the polymer composition is prepared by polymerizing the first, second, and third monomers. In certain embodiments, the third monomer is added subsequently to a mixture of at least the first and second monomers. When added to the polymer composition, the third monomer may contribute a visible absorbance that obscures the intended color of the polymer. […] In some embodiments, UV irradiation initiates the polymerization process. The disappearance of the visible absorbance can be measured by image analysis in ImageJ. […] As shown, the visible absorbance of polymer compositions with concentrations of 1, 2, and 5 wt % 2SiPr-DOT disappears after 20 minutes of UV irradiation. Compositions with lower concentrations show a disappearance of viable absorbance between about 5 and about 10 minutes of UV irradiation.

[3] = Bench stability noted for DOT derivatives

| Structure (SMILES) | Solubility (wt % in polish) [1] [wt % in polish] | Solubility in nail polish, comparison in words ([1]; nail polish, versus DOT or 2S^sBu-DOT) | Notes: solubility / appearance in nail polish solution [1] | Colour contributed to the polymer (visible absorbance) [2] | Notes: bench stability [3] |
| --- | --- | --- | --- | --- | --- |
| CC(C)Sc1ccc2c(c1)-c1ccccc1COC2=S [2S^iPr-DOT, 2-(isopropylthio)dibenzo[c,e]oxepine-5(7H)-thione] | 7.64 | superior solubility in nail polish over DOT or 2S^sBu-DOT | Yellow crystalline solid; shows superior solubility in standard nail polish solution | does not contribute a permanent color | – |
| CCC(C)Sc1ccc2c(c1)-c1ccccc1COC2=S (centres unmarked) [2S^sBu-DOT] | 2.00 | – | cloudy and inhomogeneous in nail polish solution | – | not bench stable |
| S=C1OCc2ccccc2-c2ccccc21 [DOT, dibenzo[c,e]oxepine-5(7H)-thione, reference compound] | 2.23 | – | – | – | – |
